Counter-ions that a name gives are not always drawn. Like-named read-outs stand apart in the source and are kept apart here.
Experiments:
[1] = Ataxia / motor coordination (rotarod); type: in vivo, mice; details: mouse, in vivo, ip; NMR female mice, accelerating rotarod
Experimental: (§1) NMR female mice (18-28 g) housed 5 per cage were used for the maximal electroshock (MES) and motor impairment tests. All animals were kept with water and food ad libitum under a 12 hour light-dark cycle (light on at 6 a.m.) and at a controlled temperature (20±0.5 °C.). All experiments were performed between 10 a.m. and 5 p.m. Tested agents were injected 30 min. i.p. before the induction of convulsions if not stated otherwise (see below). All compounds were dissolved in 0.9% saline.
(§2) The MES test was performed together with tests for myorelaxant action (traction reflex) and motor coordination (rotarod). For the traction reflex test mice were placed with their forepaws on a horizontal rod and were required to place all 4 paws on the wire within 10 seconds. To test ataxia (motor coordination) mice were placed on an accelerating rotarod and were required to remain on the rod for 1 minute. […] These tests were followed by MES (100 Hz, 0.5 second shock duration, 50 mA shock intensity, 0.9 ms impulse duration, Ugo Basile) applied through corneal electrodes. The presence of tonic convulsions was scored (tonic extension of hind paws with minimum angle to the body of 90[…]). The aim was to obtain ED50s for all parameters scored (anticonvulsive activity and motor side effects) with use of the Litchfield Wilcoxon test for quantal dose responses. Division of the ED50 for side effects (ataxia or myorelaxation) by the ED50 for antagonism of electroshock convulsions was used as a therapeutic index (TI).
(§3) ED50s are presented with 95% confidence limits (Cl). Pearson product moment correlation analysis (Sigma Stat, Jandel Scientific) was used to compare in vitro potencies and in vivo anticonvulsant activity.

[2] = tested on: motor coordination (rotarod); experiment: Ataxia / motor coordination (rotarod); type: in vivo, mice; details: ED50 ataxia divided by ED50 MES
Experimental: as §1, §2, §3

tonic convulsions (MES) = experiment: Maximal electroshock (MES) anticonvulsive test; type: in vivo, mice; details: Mus musculus, ip, read-out: MES ED50
Experimental: as §1, §2, §3

NR1a/2A receptors = biological target: T1, NR1a/2A receptors (Homo sapiens, UniProt Q05586+Q12879); experiment: NMDA receptor subtype expression in Xenopus oocytes, two-electrode voltage clamp; type: cell-based
T1 construct: expressed in transfected cells; host or cells: Xenopus laevis oocytes injected with subunit RNA
T1 sequence (Q12879 23-1464, other chains not shown): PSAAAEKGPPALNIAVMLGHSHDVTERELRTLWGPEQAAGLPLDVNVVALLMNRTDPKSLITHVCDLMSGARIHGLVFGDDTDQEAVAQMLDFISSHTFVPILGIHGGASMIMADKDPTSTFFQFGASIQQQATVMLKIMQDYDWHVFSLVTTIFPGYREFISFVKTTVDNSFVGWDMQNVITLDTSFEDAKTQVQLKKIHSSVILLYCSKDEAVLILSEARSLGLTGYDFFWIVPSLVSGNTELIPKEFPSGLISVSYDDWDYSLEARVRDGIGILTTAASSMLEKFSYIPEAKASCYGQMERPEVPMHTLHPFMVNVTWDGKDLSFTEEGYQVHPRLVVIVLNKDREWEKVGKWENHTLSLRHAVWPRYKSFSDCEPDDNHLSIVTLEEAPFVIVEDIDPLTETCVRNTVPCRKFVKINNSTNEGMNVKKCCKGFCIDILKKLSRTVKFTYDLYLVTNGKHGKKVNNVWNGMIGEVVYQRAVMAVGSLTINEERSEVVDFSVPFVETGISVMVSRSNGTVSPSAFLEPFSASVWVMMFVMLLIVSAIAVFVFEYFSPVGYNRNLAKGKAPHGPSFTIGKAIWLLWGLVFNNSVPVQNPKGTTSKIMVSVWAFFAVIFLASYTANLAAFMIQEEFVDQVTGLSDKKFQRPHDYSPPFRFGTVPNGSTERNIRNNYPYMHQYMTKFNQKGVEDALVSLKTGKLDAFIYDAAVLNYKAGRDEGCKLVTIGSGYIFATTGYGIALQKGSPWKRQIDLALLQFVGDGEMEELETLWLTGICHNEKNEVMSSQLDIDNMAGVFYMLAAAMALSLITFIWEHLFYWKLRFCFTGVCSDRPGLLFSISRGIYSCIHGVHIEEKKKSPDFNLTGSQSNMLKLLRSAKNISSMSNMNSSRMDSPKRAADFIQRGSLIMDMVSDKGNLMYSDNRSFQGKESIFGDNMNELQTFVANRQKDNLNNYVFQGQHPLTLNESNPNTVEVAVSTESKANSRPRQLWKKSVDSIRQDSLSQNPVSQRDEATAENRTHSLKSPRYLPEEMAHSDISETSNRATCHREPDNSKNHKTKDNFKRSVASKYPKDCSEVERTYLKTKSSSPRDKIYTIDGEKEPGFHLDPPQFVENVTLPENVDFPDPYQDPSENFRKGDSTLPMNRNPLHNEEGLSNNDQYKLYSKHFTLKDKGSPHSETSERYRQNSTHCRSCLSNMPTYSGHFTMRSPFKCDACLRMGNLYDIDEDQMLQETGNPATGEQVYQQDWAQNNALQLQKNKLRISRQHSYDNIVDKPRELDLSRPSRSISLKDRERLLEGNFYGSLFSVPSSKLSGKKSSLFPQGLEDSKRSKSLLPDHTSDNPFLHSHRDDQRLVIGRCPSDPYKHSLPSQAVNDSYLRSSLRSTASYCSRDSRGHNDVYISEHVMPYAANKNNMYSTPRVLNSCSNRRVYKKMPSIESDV
Experimental: Mature female Xenopus laevis were anaesthetized in 0.2% Tricaine on ice for 15 min prior to surgery. Oocytes were removed and incubated in 2 mg/ml collagenase (type II) in Ca^2+-free oocyte Ringer solution (82.5 mM NaCl, 2 mM KCl, 2 mM MgCl2, 5 mM HEPES, pH 7.5) for 30 min. at room temperature and washed thoroughly with OR-2 (100 mM NaCl, 2 mM KCl, 1 mM MgCl2, 2 mM CaCl2, 5 mM HEPES, pH 7.5). The remaining follicle cell layer was removed manually with fine forceps and the oocytes were kept in OR-2. The RNA was dissolved in DEPC-treated, sterile distilled water. RNA for the NMDA NR1a subunit was mixed 1:1 with RNA for the NR2A subunit. Likewise neuronal nicotinic α4 RNA was mixed 1:1 with RNA for the β2 subunit. Fifty to 100 nanoliters of each RNA mixture were injected in the oocyte's cytoplasm using a Nanoliter Injector (World Precision Instruments). The oocytes were incubated at 19° C. in OR-2 for the following 3 to 6 days.
The electrophysiological responses were obtained using the standard two-electrode voltage-clamp method (GeneClamp 500 amplifier), 2-6 days after injection. […] Recordings were made in a custom made chamber with 2 to 3 second exchange times. The bath solution was prepared Ca^2+-free, to avoid Ca^2+-induced Cl^− currents (100 mM NaCl, 2 mM KCl, 5 mM HEPES, 2 mM BaCl2, pH 7.35). NMDA receptors were activated by the manual co-application of 1 mM Glutamate and 10 μM Glycine for 30-40 secs every 2 to 3 mins to oocytes clamped at −70 mV. Neuronal nicotinic receptors were activated by application of 100 μM acetylcholine for 20-30 secs every 2 to 3 mins to oocytes clamped at −70 mV. After obtaining stable control responses, full concentration-response curves with antagonists were obtained by preincubating 6-7 different concentrations at log 3 intervals.
Only results from stable cells were accepted for inclusion in the final analysis i.e. showing at least 50% recovery of responses to NMDA following removal of the antagonist tested. Despite this, recovery from drug actions wasn't always 100% because of minor rundown or runup in some cells. When present, this was always compensated by basing the % antagonism at each concentration on both control and recovery and assuming a linear time course for this rundown. All antagonists were assessed at steady-state blockade with 6 to 7 concentrations on at least 4 cells. Equilibrium blockade was achieved within 1 to 3 agonist applications, depending on antagonist concentration.
Kinetic experiments were performed by applying various concentrations of unsaturated amino-alkyl-cyclohexanes (normally 5 in a log 3 dosing regime) for 10-20 seconds in the continuous presence of glutamate (100 μM and glycine 10 μM) for 90-180 seconds in Xenopus oocytes expressing NR1a/2A receptors. The perfusion system used for these experiments was a modified oocyte carousel system which allows rapid wash in and wash out of agonist and antagonist with change times less than one second. Exponential fits were made using the program TIDA for windows and most responses were well fitted by a single exponential. This same system was used to access the voltage-dependency of blockade, but the bath solution contained flufenamic acid (100 μM) to block endogenous voltage-activated and Ca^2+ activated Cl^− currents. Also, Ba^2+ (2 mM) was replaced by low concentrations of Ca^2+ (0.2 mM). Following equilibrium blockade by higher concentrations of antagonist (normally around 10 times the IC50), five ramps were driven from −70 mV to +30 mV over two seconds. Similar ramps were driven in bath solutions and for glutamate without antagonist, both before antagonist application and following recovery of responses. The leak currents in the absence of glutamate were substrated from the glutamate and glutamate plus antagonist curves. Voltage-dependency was then determined by comparing the glutamate and glutamate plus antagonist curves.

[3] = biological target: NMDA receptor ([3H]-(+)-MK-801 site); experiment: [3H]-(+)-MK-801 receptor binding, rat cortex membranes; details: for Ki: glycine 10 μM, glutamate 10 μM, mean, n=3
Experimental: Male Sprague-Dawley rats (200-250 g) were decapitated and their brains were removed rapidly. The cortex was dissected and homogenized in 20 volumes of ice-cold 0.32 M sucrose using a glass-Teflon homogenizer. The homogenate was centrifuged at 1000× g for 10 min. The pellet was discarded and the supernatant centrifuged at 20,000× g for 20 min. The resulting pellet was re-suspended in 20 volumes of distilled water and centrifuged for 20 min at 8000× g. Then the supernatant and the buffy coat were centrifuged at 48,000× g for 20 min in the presence of 50 mM Tris-HCl, pH 8.0. The pellet was then re-suspended and centrifuged two to three more times at 48,000× g for 20 min in the presence of 50 mM Tris-HCl, pH 8.0. All centrifugation steps were carried out at 4° C. After resuspension in 5 volumes of 50 mM Tris-HCl, pH 8.0 the membrane suspension was frozen rapidly at −80° C.
On the day of assay the membranes were thawed and washed four times by resuspension in 50 mM Tris-HCl, pH 8.0 and centrifugation at 48,000× g for 20 min. and finally re-suspended in 50 mM Tris-HCl, pH 7.4. The amount of protein in the final membrane preparation (250-500 μg/ml) was determined according to the method of Lowry et al. (1951). Incubations were started by adding [^3H]-(+)-MK-801 (23.9 Ci/mmol, 5 nM, Dupont NEN) to vials with glycine (10 μM), glutamate (10 μM), and 125-250 μg protein (total volume 0.5 ml) and various concentrations of the agents tested (10 concentrations in duplicates). The incubations were continued at room temperature for 120 min (equilibrium was achieved under the conditions used). Non-specific binding was defined by the addition of unlabeled (+)-MK-801 (10 μM). Incubations were terminated using a Millipore filter system. The samples were rinsed twice with 4 ml of ice cold assay buffer over glass fibre filters (Schleicher & Schuell) under a constant vacuum. Following separation and rinse the filters were placed into scintillation liquid (5 ml; Ultima Gold) and radioactivity retained on the filters was determined with a conventional liquid scintillation counter (Hewlett Packard, Liquid Scintillation Analyser). […] Most antagonists were tested in 3 to 7 separate experiments.
IC50s in patch clamp and binding studies were calculated according to the four parameter logistic equation using the Grafit computer program (Erithacus Software, England). Ki value for binding studies were then determined according to Cheng and Prusoff. Binding values presented are means±SEM of 3-5 determinations (each performed in duplicate).

traction reflex = experiment: Myorelaxant action (traction reflex); type: in vivo, mice; details: for TI Myorelaxation: ED50 myorelaxation divided by ED50 MES; for Myorelaxation ED50: NMR female mice, i.p., traction reflex, in mg/kg
Experimental: as §1, §2
(§4) Pearson product moment correlation analysis (Sigma Stat, Jandel Scientific) was used to compare in vitro potencies and in vivo anticonvulsant activity.

[4] = Myorelaxant action (traction reflex); type: in vivo, mice; details: mouse, in vivo, ip; NMR female mice, i.p., traction reflex; read-out: Myorelaxation ED50
Experimental: as §1, §2, §4

[5] = Xenopus oocytes, N=6, read-out: NMDA IC50

| Molecule | ED50 at 30 min [1] | ED50 (tonic convulsions (MES)) | Ki [3] | ED50 at 30 min [4] | IC50 (NR1a/2A receptors; [5]) | also measured |
| --- | --- | --- | --- | --- | --- | --- |
| CC1(C)CC(C)(C)CC2(CCCCN2)C1.Cl [MRZ 2/1013, 8,8,10,10-Tetramethyl-1-azaspiro[5.5]undecane hydrochloride] | 37.2 mg/kg | 9.39 mg/kg | 3.64 µM | 34.5 mg/kg |  | TI Ataxia [2]: 3.97; IC50 (NR1a/2A receptors): 4.72 µM; TI Myorelaxation (traction reflex): 3.67 |
| CC1CC2(C)CC(C)(C1)C(C)N2 (stereo not drawn) [MRZ 2029, 1,exo-3,5,exo,endo-7-Tetramethyl-6-azabicyclo[3.2.1]octane hydrochloride] | > 50 mg/kg | > 50 mg/kg | 13.2 µM | > 50 mg/kg | 36.1 µM |  |
| CCC1CC2(C)CNC(C)(C1)C2 (stereo not drawn) [MRZ 2007, exo-3-Ethyl-1,5-dimethyl-6-azabicyclo[3.2.1]octane hydrochloride] | 50 mg/kg | > 50 mg/kg | 5.46 µM | > 50 mg/kg | 6.77 µM |  |
| CCC12CC(C)CC(C)(CN1)C2 (stereo not drawn) [MRZ 2023, 5-Ethyl-1,exo-3-dimethyl-6-azabicyclo[3.2.1]octane hydrochloride] | > 30 mg/kg | > 30 mg/kg | 23.3 µM | > 30 mg/kg | 16.1 µM |  |
| CN1CC2(C)CC(C)(C)CC1(C)C2.Cl (centres unmarked) [MRZ 2/1003, 1,3,3,5,6-Pentamethyl-6-azabicyclo [3.2.1]octane hydrochloride] | 20.6 mg/kg | 16.2 mg/kg | 7.4 µM |  |  | Myorelaxation ED50 (traction reflex): 16.77 |
| CC1CC2(C)CNC(C)(C1)C2 (stereo not drawn) [MRZ 2011, 1,exo-3,5-Trimethyl-6-azabicyclo[3.2.1]octane hydrochloride] |  |  | 15.8 µM |  |  |  |
| (+)-5-methyl-10,11-dihydro-5H-dibenzocyclohepten-5,10-imine maleate [[^3H]-(+)-MK-801, reference compound] |  |  |  |  |  | Kd ([3]; read-out: Kd of radioligand by Scatchard analysis): 0.0046 µM |
| CCC12CC(C)(C)CC(C)(CN1)C2 (centres unmarked) [MRZ 2022, 5-Ethyl-1,3,3-trimethyl-6-azabicyclo[3.2.1]octane hydrochloride] |  |  | 14.4 µM |  |  | IC50 (NR1a/2A receptors): 13.9 µM |
| CC1(C)CC(C)(C)CC2(CCCN2)C1.Cl [MRZ 2/1004, 7,7,9,9-Tetramethyl-1-azaspiro[4.5]decane hydrochloride] | 24 mg/kg |  | 10.5 µM | 27.5 mg/kg |  | TI Ataxia [2]: 1.00; ED50 (tonic convulsions (MES); NMR female mice, i.p. 30 min before convulsions): 24.1 mg/kg; TI Myorelaxation (traction reflex): 1.14 |
| CC1(C)CC2(C)CNC(C)(C1)C2.Cl (centres unmarked) [MRZ 2/1010, 1,3,3,5-Tetramethyl-6-azabicyclo [3.2.1]octane hydrochloride] | 24.9 mg/kg | 5.91 mg/kg | 2.59 µM |  |  | IC50 (NR1a/2A receptors): 0.76 µM; Hill (NR1a/2A receptors; Xenopus oocytes expressing NR1a/2A, glutamate 100 μM, glycine 10 μM, -70 mV): 0.63; Myorelaxation ED50 (traction reflex): 10.62 |
| CC1CC2(C)CC(C)(C1)C(c1ccccc1)N2 (stereo not drawn) [MRZ 2028, 1,exo-3,5-Trimethyl-exo,endo-7-phenyl-6-azabicyclo[3.2.1]octane hydrochloride] |  |  | 3.21 µM |  | 10.3 µM |  |
